Laboratory results taken from ChEMBL document CHEMBL4433231 (Bioorg Med Chem Lett, 2019).

These compounds were tested against Vitamin K epoxide reductase complex subunit 1 (Homo sapiens, UniProt Q9BQB6) (assay: Inhibition of VKOR (unknown origin) in HEK293 expressing FIXgla-PC incubated for 48 hrs by ELISA).
Vitamin K epoxide reductase complex subunit 1, sequence (Q9BQB6 whole entry, one chain of several): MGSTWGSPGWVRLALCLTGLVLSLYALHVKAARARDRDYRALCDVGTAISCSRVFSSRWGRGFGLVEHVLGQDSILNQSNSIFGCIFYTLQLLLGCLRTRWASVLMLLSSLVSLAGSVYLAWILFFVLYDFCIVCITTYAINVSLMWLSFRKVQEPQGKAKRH
Format: cell-based
`CC(=O)CC(C1=C/C=C(C(=O)O)\C=C/C=C\1)c1c(O)c2ccccc2oc1=O` (racemic) showed an IC50 of 1.93 µM.
Compound `C[C@]1(O)C[C@H](C2=C/C=C\C=C/C=C\2)[C@]2(COc3ccccc3C2=O)n2c(=O)n(-c3ccccc3)c(=O)n21` has an IC50 of 0.0582 µM.
`CC(=O)CC(c1c(O)c2ccccc2oc1=O)C1CCCCCCC1` (racemic) was tested, and the IC50 was 0.059 µM.
`CC(=O)CC(c1c(O)c2ccccc2oc1=O)C1CCCCC1` (racemic) showed an IC50 of 0.0902 µM.
`CC1(O)CC(C2=C/C=C\C=C/C=C\2)c2c(c3ccccc3oc2=O)O1` (racemic) showed an IC50 of 0.0045 µM.
